Read-outs that look alike come from different tables or passages of the source.
Experiments:
[1] = system: AP-1060 (ETV6-NTRK3); assay: Cell viability assay; conditions: read-out: IC50 in cell proliferation assay
[2] = system: 134 cancer cell lines; assay: Cell viability assay (ATPlite, 72 hours), IC50 on cancer cell line panel

`O=C(c1ccc(F)c(F)c1Nc1ccc(I)cc1F)N1CC(O)([C@@H]2CCCCN2)C1` [cobimetinib] showed an IC50 [1] of 7330 nM, an IC50 ([2]; HEC-6, read-out: IC50 in cell proliferation assay, HEC-6 cell line (EGFR p.A289V)) of 164 nM and an IC50 ([2]; Homo sapiens, 769-P, read-out: IC50 in cell proliferation assay, cell line 769-P) of 423 nM. The IC50 ([2]; Homo sapiens, 786-0, read-out: IC50 in cell proliferation assay, cell line 786-O) was 205 nM, the IC50 ([2]; Homo sapiens, A 172, read-out: IC50 in cell proliferation assay, cell line A-172) was 218 nM and the IC50 ([2]; Homo sapiens, A204, read-out: IC50 in cell proliferation assay, cell line A-204) was 900 nM. For the same compound, the IC50 ([2]; Homo sapiens, A498, read-out: IC50 in cell proliferation assay, cell line A-498) was 3910 nM, the IC50 ([2]; Homo sapiens, A549, read-out: IC50 in cell proliferation assay, cell line A-549) was 255 nM and the IC50 ([2]; Homo sapiens, A704, read-out: IC50 in cell proliferation assay, cell line A-704) was > 10000 nM. It also gave an IC50 ([2]; Homo sapiens, A-375, read-out: IC50 in cell proliferation assay, cell line A-375 (BRAF p.V600E)) of 13 nM, an IC50 ([2]; Homo sapiens, A-427, read-out: IC50 in cell proliferation assay, cell line A-427) of 72 nM and an IC50 ([2]; Homo sapiens, ACHN, read-out: IC50 in cell proliferation assay, cell line ACHN) of 104 nM. For the same compound, the IC50 ([2]; Homo sapiens, AN3-CA, read-out: IC50 in cell proliferation assay, cell line AN3-CA (FGFR2 p.N549K)) was 558 nM, the IC50 ([2]; Homo sapiens, ASPC1, read-out: IC50 in cell proliferation assay, cell line AsPC-1) was 61 nM and the IC50 ([2]; Homo sapiens, AU565, read-out: IC50 in cell proliferation assay, cell line AU565 (ERBB2 amplification)) was > 10000 nM. The IC50 ([2]; Homo sapiens, BT-20, read-out: IC50 in cell proliferation assay, cell line BT-20) was > 10000 nM, the IC50 ([2]; Homo sapiens, BT-474, read-out: IC50 in cell proliferation assay, cell line BT-474 (ERBB2 amplification)) was 5990 nM and the IC50 ([2]; Homo sapiens, BT-549, read-out: IC50 in cell proliferation assay, cell line BT-549) was 5720 nM. It also gave an IC50 ([2]; Homo sapiens, BXPC-3, read-out: IC50 in cell proliferation assay, cell line BxPC-3) of 10 nM, an IC50 ([2]; Homo sapiens, C-33-A, read-out: IC50 in cell proliferation assay, cell line C-33 A) of 43 nM and an IC50 ([2]; Homo sapiens, CAL-27, read-out: IC50 in cell proliferation assay, cell line CAL-27) of 63 nM. The IC50 ([2]; Homo sapiens, CCF-STTG1, read-out: IC50 in cell proliferation assay, cell line CCF-STTG1) was > 10000 nM, the IC50 ([2]; Homo sapiens, CCRF-CEM, read-out: IC50 in cell proliferation assay, cell line CCRF-CEM) was 8480 nM and the IC50 ([2]; Homo sapiens, COLO 205, read-out: IC50 in cell proliferation assay, cell line COLO 205 (BRAF p.V600E)) was 10 nM. For the same compound, the IC50 ([2]; Homo sapiens, COLO-829, read-out: IC50 in cell proliferation assay, cell line COLO 829 (BRAF p.V600E)) was 28 nM, the IC50 ([2]; Homo sapiens, DLD-1, read-out: IC50 in cell proliferation assay, cell line DLD-1) was 724 nM and the IC50 ([2]; Homo sapiens, DU-4475, read-out: IC50 in cell proliferation assay, cell line DU4475 (BRAF p.V600E)) was 17 nM. The IC50 ([2]; Homo sapiens, Daoy, read-out: IC50 in cell proliferation assay, cell line Daoy) was > 10000 nM, the IC50 ([2]; Homo sapiens, DoTc2-4510, read-out: IC50 in cell proliferation assay, cell line DoTc2 4510) was 42 nM and the IC50 ([2]; Homo sapiens, EOL1, read-out: IC50 in cell proliferation assay, cell line EoL-1 (FIP1L1-PDGFRA)) was 87 nM. The IC50 ([2]; Homo sapiens, FaDu, read-out: IC50 in cell proliferation assay, cell line FaDu) was 146 nM, the IC50 ([2]; Homo sapiens, G-361, read-out: IC50 in cell proliferation assay, cell line G-361 (BRAF p.V600E)) was 11 nM and the IC50 ([2]; Homo sapiens, HCC827, read-out: IC50 in cell proliferation assay, cell line HCC827 (EGFR exon19del)) was 321 nM. For the same compound, the IC50 ([2]; Homo sapiens, HCC4006, read-out: IC50 in cell proliferation assay, cell line HCC4006 (EGFR exon19del)) was 1280 nM, the IC50 ([2]; Homo sapiens, HCT-15, read-out: IC50 in cell proliferation assay, cell line HCT 15) was 3580 nM and the IC50 ([2]; Homo sapiens, HCT-116, read-out: IC50 in cell proliferation assay, cell line HCT 116) was 106 nM. For the same compound, the IC50 ([2]; Homo sapiens, HEC-1, read-out: IC50 in cell proliferation assay, HEC-1 cell line) was 368 nM, the IC50 ([2]; Homo sapiens, HEC-1B, read-out: IC50 in cell proliferation assay, HEC-1-B cell line (EGFR p.A864V)) was 13 nM and the IC50 ([2]; Homo sapiens, HL-60, read-out: IC50 in cell proliferation assay, HL-60 cell line) was 19 nM. For the same compound, the IC50 ([2]; Homo sapiens, HT, read-out: IC50 in cell proliferation assay, HT cell line) was > 10000 nM, the IC50 ([2]; Homo sapiens, HT-1080, read-out: IC50 in cell proliferation assay, HT-1080 cell line) was 68 nM and the IC50 ([2]; Homo sapiens, Hs746T, read-out: IC50 in cell proliferation assay, Hs 746.T cell line (MET exon14skip + amplification)) was 530 nM. It also gave an IC50 ([2]; Homo sapiens, Hs-578T, read-out: IC50 in cell proliferation assay, Hs 578T cell line) of 2220 nM, an IC50 ([2]; Homo sapiens, HuTu80, read-out: IC50 in cell proliferation assay, HuTu 80 cell line) of 319 nM and an IC50 ([2]; Homo sapiens, J82, read-out: IC50 in cell proliferation assay, J82 cell line) of 85 nM. For the same compound, the IC50 ([2]; Homo sapiens, Jurkat E6.1, read-out: IC50 in cell proliferation assay, Jurkat E6.1 cell line) was > 10000 nM, the IC50 ([2]; Homo sapiens, K562, read-out: IC50 in cell proliferation assay, K-562 cell line) was 73 nM and the IC50 ([2]; Homo sapiens, KATO III, read-out: IC50 in cell proliferation assay, KATO III cell line (FGFR2 amplification)) was 291 nM. The IC50 ([2]; Homo sapiens, KG-1, read-out: IC50 in cell proliferation assay, KG-1 cell line (FGFR1OP2-FGFR1)) was 26 nM, the IC50 ([2]; Homo sapiens, KLE, read-out: IC50 in cell proliferation assay, KLE cell line) was > 10000 nM and the IC50 ([2]; Homo sapiens, KMS-11, read-out: IC50 in cell proliferation assay, KMS-11 cell line (FGFR3 p.Y373C)) was 4120 nM. The IC50 ([2]; Homo sapiens, KU812, read-out: IC50 in cell proliferation assay, Ku812 cell line) was 64 nM, the IC50 ([2]; Homo sapiens, Kasumi 1, read-out: IC50 in cell proliferation assay, Kasumi-1 cell line (KIT p.N822K)) was 62 nM and the IC50 ([2]; Homo sapiens, LC-2-ad, read-out: IC50 in cell proliferation assay, LC-2/ad cell line (CCDC6-RET)) was 1190 nM. The IC50 ([2]; Homo sapiens, LNCaP-Clone-FGC, read-out: IC50 in cell proliferation assay, LNCaP clone FGC cell line) was 9640 nM, the IC50 ([2]; Homo sapiens, LS174T, read-out: IC50 in cell proliferation assay, LS174T cell line) was 25 nM and the IC50 ([2]; Homo sapiens, LS-411N, read-out: IC50 in cell proliferation assay, LS411N cell line (BRAF p.V600E)) was 21 nM. For the same compound, the IC50 ([2]; Homo sapiens, LoVo, read-out: IC50 in cell proliferation assay, LoVo cell line) was 118 nM, the IC50 ([2]; Homo sapiens, MCF7, read-out: IC50 in cell proliferation assay, MCF-7 cell line) was 8550 nM and the IC50 ([2]; Homo sapiens, MDA-MB-231, read-out: IC50 in cell proliferation assay, MDA-MB-231 cell line) was 192 nM. For the same compound, the IC50 ([2]; Homo sapiens, MDA-MB-453, read-out: IC50 in cell proliferation assay, MDA-MB-453 cell line) was 501 nM, the IC50 ([2]; Homo sapiens, MDA-MB-468, read-out: IC50 in cell proliferation assay, MDA-MB-468 cell line) was 248 nM and the IC50 ([2]; Homo sapiens, MG-63, read-out: IC50 in cell proliferation assay, MG-63 cell line) was 421 nM. For the same compound, the IC50 ([2]; Homo sapiens, MIA PaCa-2, read-out: IC50 in cell proliferation assay, MIA PaCa-2 cell line) was 68 nM, the IC50 ([2]; Homo sapiens, MKN-45, read-out: IC50 in cell proliferation assay, MKN45 cell line (MET amplification)) was 294 nM and the IC50 ([2]; Homo sapiens, MOLM-13, read-out: IC50 in cell proliferation assay, MOLM-13 cell line (FLT3 ITD)) was 172 nM.

Reference: PMC9516332 (Frontiers in Oncology, 2022)
